The values that follow come from paper PMC11951083, “Highly Specific Miniaturized Fluorescent Monoacylglycerol Lipase Probes Enable Translational Research” (Journal of the American Chemical Society, 2025).

In assay [1] the target is GSK3alpha (h) (Homo sapiens, UniProt P49840). Briefly: GSK3alpha (h). The settings on record: read-out: Inhibition GSK3alpha (h).
The target in assay [2] is PDE4D2 (h) (Homo sapiens, UniProt Q08499). The assay can be described thus: PDE4D2 (h). The settings on record: read-out: Inhibition PDE4D2 (h).
PDE4D2 (h), sequence (Q08499 303-809 limits assumed): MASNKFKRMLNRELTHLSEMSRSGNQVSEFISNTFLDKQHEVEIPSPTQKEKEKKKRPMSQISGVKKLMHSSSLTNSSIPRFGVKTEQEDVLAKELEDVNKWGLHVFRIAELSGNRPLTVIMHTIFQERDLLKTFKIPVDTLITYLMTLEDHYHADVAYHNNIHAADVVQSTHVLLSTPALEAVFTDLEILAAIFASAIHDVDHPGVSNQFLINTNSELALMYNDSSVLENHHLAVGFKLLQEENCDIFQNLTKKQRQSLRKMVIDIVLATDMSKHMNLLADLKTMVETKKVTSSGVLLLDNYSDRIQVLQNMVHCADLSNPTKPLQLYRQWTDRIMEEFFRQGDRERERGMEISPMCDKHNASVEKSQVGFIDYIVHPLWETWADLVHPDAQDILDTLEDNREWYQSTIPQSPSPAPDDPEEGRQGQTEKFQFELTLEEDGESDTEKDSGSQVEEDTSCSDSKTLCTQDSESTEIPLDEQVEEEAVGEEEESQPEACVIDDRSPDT
The target of assay [3] is H2 (h) (Homo sapiens, UniProt P25021). Briefly: H2 (h) (antagonist radioligand). The settings on record: read-out: Inhibition H2 (h) (antagonist radioligand).
H2 (h), sequence (P25021 whole entry): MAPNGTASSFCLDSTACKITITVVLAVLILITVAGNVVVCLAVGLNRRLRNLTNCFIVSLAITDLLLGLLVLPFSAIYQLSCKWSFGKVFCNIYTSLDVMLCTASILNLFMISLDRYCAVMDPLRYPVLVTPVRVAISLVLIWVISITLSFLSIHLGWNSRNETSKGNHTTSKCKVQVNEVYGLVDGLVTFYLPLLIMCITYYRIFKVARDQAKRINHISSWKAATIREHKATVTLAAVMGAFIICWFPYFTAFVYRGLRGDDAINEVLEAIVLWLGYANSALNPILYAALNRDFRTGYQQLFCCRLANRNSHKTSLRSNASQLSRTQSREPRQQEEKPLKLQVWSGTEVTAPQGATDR
The target in assay [4] is T1, AT1 (h) (Homo sapiens, UniProt P30556).
T1 sequence (P30556 1-359): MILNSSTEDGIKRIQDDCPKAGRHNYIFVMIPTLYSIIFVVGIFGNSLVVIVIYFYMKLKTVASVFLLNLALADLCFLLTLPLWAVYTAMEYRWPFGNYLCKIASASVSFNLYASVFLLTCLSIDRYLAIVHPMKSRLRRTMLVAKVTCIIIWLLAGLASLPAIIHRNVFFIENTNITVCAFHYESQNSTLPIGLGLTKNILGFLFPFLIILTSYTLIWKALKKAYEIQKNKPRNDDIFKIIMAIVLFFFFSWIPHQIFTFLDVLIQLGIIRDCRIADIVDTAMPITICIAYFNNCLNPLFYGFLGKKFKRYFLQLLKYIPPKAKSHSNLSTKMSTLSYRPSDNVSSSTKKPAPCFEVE
The assay can be described thus: AT1 (h) (antagonist radioligand). The settings on record: read-out: Inhibition AT1 (h) (antagonist radioligand).

For assay [5], the system named is Ca2+ channel (L, diltiazem site). The assay can be described thus: Ca2+ channel (L, diltiazem site) (antagonist radioligand). The note with it: 10 µM.
The target of assay [6] is T2, A3 (h) (Homo sapiens, UniProt P0DMS8).
T2 sequence (P0DMS8 1-318): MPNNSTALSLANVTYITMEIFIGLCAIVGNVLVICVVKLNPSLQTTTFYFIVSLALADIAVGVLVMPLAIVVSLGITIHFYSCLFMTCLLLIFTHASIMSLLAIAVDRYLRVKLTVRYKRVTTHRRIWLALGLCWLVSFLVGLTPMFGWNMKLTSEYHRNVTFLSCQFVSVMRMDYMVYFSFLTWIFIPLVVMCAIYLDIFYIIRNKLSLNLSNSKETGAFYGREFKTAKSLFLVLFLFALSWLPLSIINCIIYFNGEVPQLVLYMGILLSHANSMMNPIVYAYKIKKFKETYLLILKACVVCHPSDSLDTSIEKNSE
Briefly: A3 (h) (agonist radioligand). The settings on record: read-out: Inhibition A3 (h) (agonist radioligand).

Assay [7] deals with 50 clinically relevant and safety-related off-targets. The assay can be described thus: CEREP panel of 50 off-targets (overall). The note with it: for selectivity profile in off-target panel: 10 μM, panel of 50 unrelated off-target receptors and enzymes; for S(90): fraction of targets with more than 90% inhibition at 10 µM; for S(50): fraction of targets with more than 50% inhibition at 10 µM.

The target in assay [8] is CDK2 (h) (cycA) (Homo sapiens, UniProt P24941). Briefly: CDK2 (h) (cycA). The settings on record: read-out: Inhibition CDK2 (h) (cycA).
Assay [9] has as its target T3, M2 (h) (Homo sapiens, UniProt P08172).
T3 sequence (P08172 1-466): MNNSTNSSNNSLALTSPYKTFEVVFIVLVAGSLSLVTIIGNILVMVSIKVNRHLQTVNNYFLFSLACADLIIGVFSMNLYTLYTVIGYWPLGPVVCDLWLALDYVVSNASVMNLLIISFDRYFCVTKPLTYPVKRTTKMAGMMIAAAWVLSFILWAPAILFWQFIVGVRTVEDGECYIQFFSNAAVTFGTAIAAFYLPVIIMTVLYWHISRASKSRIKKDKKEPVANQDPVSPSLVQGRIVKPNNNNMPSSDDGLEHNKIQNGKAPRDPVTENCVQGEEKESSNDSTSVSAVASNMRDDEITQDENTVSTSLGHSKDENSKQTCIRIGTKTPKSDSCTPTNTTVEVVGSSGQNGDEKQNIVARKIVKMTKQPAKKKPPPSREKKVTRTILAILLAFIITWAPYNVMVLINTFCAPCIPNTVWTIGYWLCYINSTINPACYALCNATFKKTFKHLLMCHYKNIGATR
The assay can be described thus: M2 (h) (antagonist radioligand). The note with it: read-out: Inhibition M2 (h) (antagonist radioligand).

For assay [10], the target named is T4, M1 (h) (Homo sapiens, UniProt P11229).
T4 sequence (P11229 1-460): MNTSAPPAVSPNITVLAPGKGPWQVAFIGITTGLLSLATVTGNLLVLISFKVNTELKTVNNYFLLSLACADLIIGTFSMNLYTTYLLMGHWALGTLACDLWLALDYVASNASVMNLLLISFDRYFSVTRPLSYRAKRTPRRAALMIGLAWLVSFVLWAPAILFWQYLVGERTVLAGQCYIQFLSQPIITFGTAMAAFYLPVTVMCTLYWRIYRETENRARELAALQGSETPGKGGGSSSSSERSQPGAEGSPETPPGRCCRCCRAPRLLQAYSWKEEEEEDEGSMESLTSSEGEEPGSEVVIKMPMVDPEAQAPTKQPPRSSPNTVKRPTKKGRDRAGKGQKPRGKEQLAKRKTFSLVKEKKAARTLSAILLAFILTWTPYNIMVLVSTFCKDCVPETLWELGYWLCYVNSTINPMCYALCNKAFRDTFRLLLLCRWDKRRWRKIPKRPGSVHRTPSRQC
Briefly: M1 (h) (antagonist radioligand). The note with it: read-out: Inhibition M1 (h) (antagonist radioligand).

Each structure is given as a SMILES string.

GSK3alpha (h), sequence (P49840 whole entry): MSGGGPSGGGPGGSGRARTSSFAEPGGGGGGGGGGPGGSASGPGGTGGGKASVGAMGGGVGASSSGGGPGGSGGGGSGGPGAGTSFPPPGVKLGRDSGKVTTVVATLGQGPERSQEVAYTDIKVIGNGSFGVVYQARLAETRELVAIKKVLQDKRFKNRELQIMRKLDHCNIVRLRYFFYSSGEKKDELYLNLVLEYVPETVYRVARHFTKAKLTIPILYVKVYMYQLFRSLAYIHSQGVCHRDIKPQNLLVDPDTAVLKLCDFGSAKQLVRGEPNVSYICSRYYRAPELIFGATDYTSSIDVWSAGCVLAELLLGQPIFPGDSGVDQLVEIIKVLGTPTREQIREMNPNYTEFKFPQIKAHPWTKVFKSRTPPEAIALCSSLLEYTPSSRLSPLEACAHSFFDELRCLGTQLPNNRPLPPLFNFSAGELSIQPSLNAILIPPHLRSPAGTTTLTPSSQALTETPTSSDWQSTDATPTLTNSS

As a reminder, the inhibition is the drop in the measured response relative to a control, in per cent. For `O=C(O[C@H](CO)C(F)(F)F)N1CC2(CC(CC3=C4C=CC=[N+]4[B-](F)(F)n4cccc43)C2)C1` [Compound 1], the inhibition at 10 µM in [1] was 0.3%; in assay [2], 18%; in assay [3], -10.7%; in assay [4], -4.3%; in [6], -1.6%; in assay [8] it was 7.8%. Further, the inhibition at 10 µM came to 35.1% in [9] and 33.5% in [10]. Further, the “Inhibition Ca2+ channel (L, diltiazem site) (antagonist radioligand)” value (“Inhibition Ca2+ channel” for short) in assay [5] was 20,60%. For the same compound, the “selectivity profile in off-target panel” value in assay [7] is listed as “very clean selectivity profile”. Moreover, in assay [7], the “S(90)” value is on record as 0.0%.
Turning to `O=C(N1CC2(CC(CC3=C4C=CC=[N+]4[B-](F)(F)n4cccc43)C2)C1)N1CC2(CC(n3cnc(C4CC4)n3)C2)C1` [Compound 5], the inhibition at 10 µM is -1.8% in assay [1]; 11.3% in assay [2]; -1.9% in [3]; 11.1% in assay [4]; 17.7% in [6]; 6.5% in assay [8]. The inhibition at 10 µM in assay [9] is 33.2%; in [10], 14.7%. Also, the “Inhibition Ca2+ channel” value in [5] is given as 1,70%. For the same compound, the “selectivity profile in off-target panel” value in assay [7] was “very clean selectivity profile”. Further, the “S(90)” value in assay [7] is recorded as 0.0%.
In the case of `O=C1CO[C@H]2CCN(C(=O)N3CC4(CC(CC5=C6C=CC(c7ccc[nH]7)=[N+]6[B-](F)(F)n6cccc65)C4)C3)C[C@H]2N1` [Compound 4a], the inhibition at 10 µM was -24.8% in assay [1]; 10.8% in assay [2]; -34.8% in assay [3]; -12.5% in assay [4]; -8.3% in assay [8]; -4.9% in assay [9]. Also, the inhibition at 10 µM in assay [10] was found to be 4%. Besides, the “Inhibition Ca2+ channel” value in assay [5] is 6,20%. For the same compound, the “selectivity profile in off-target panel” value in assay [7] is “very clean selectivity profile”. In addition, the “S(50)” value in assay [7] is 0.0%. Moreover, the “S(90)” value in assay [7] is recorded as 0.0%.
Turning to `O=C(OC(C(F)(F)F)C(F)(F)F)N1CC2(CC(CC3=C4C=CC(c5ccc[nH]5)=[N+]4[B-](F)(F)n4cccc43)C2)C1` [Compound 2a], the inhibition at 10 µM in [1] was -5.8%; in [2], -10.8%; in [3] it was -48.6%; in assay [4], 2.5%; in assay [6], 34.8%; in assay [8], -5.8%. Besides, the inhibition at 10 µM in assay [9] is -13.1%; in assay [10], -0.7%. In assay [5], the “Inhibition Ca2+ channel” value is recorded as 9,70%. Further, the “selectivity profile in off-target panel” value in [7] is listed as “very clean selectivity profile”. Also, the “S(50)” value in assay [7] stood at 0.0%. In addition, the “S(90)” value in assay [7] came out at 0.0%.
As for `O=C(OC(C(F)(F)F)C(F)(F)F)N1CC2(CC(CC3=C4C=CC=[N+]4[B-](F)(F)n4cccc43)C2)C1` [Compound 2], the inhibition at 10 µM in [1] is -3.4%; in assay [2] it was -0.6%; in assay [3], -18.7%; in assay [4], -1.2%; in [6] it was 45%; in [8] it was 6.3%. Also, the inhibition at 10 µM in assay [9] amounted to 22.2%; in assay [10] it was 26%. The “Inhibition Ca2+ channel” value in assay [5] is -14,00%. Besides, in [7], the “selectivity profile in off-target panel” value was “very clean selectivity profile”. For the same compound, the “S(50)” value in [7] is recorded as 4.0%. Also, the “S(90)” value in [7] was found to be 0.0%.
